Experimental data published in patent publication US20120058085A1, “Deuterium Modified Benzimidazoles” (priority 2009, published 2012).
Read-outs that look alike come from different tables or passages of the source.

Test: Evaluation of Metabolic Stability in Human Liver Microsomes
Assay type: in vitro ADME
Details: for percentage increase in half-life in going from clemizole to the test compound, run A / percentage increase in half-life in going from clemizole to the test compound, run B / percentage increase in half-life in going from clemizole to the test compound, run C / percentage increase in half-life in going from clemizole to the test compound, run D / percentage increase in half-life in going from clemizole to the test compound, Average: HLM, relative to clemizole; for half-life: human, microsomes
Experimental: Human liver microsomes (20 mg/mL) are obtained from Xenotech, LLC (Lenexa, KS). β-nicotinamide adenine dinucleotide phosphate, reduced form (NADPH), magnesium chloride (MgCl2), and dimethyl sulfoxide (DMSO) are purchased from Sigma-Aldrich.
Determination of Metabolic Stability: 7.5 mM stock solutions of test compounds are prepared in DMSO. The 7.5 mM stock solutions are diluted to 12.5 μM in acetonitrile (ACN). The 20 mg/mL human liver microsomes are diluted to 0.625 mg/mL in 0.1 M potassium phosphate buffer, pH 7.4, containing 3 mM MgCl2. The diluted microsomes (375 μL) are added to wells of a 96-well deep-well polypropylene plate in triplicate. Ten to 40 μL of the 12.5 μM test compound is added to the microsomes and the mixture is pre-warmed for 10 minutes. Reactions are initiated by addition of 125 μL of pre-warmed NADPH solution. The final reaction volume is 0.5 mL and contains 0.5 mg/mL human liver microsomes, 0.25-1.0 μM test compound, and 2 mM NADPH in 0.1 M potassium phosphate buffer, pH 7.4, and 3 mM MgCl2. The reaction mixtures are incubated at 37° C., and 50 μL aliquots are removed at 0, 5, 10, 20, and 30 minutes and added to shallow-well 96-well plates which contain 50 μL of ice-cold ACN with internal standard to stop the reactions. The plates are stored at 4° C. for 20 minutes after which 100 μL of water is added to the wells of the plate before centrifugation to pellet precipitated proteins. Supernatants are transferred to another 96-well plate and analyzed for amounts of parent compound remaining by LC-MS/MS using an Applied Bio-systems API 4000 mass spectrometer. The same procedure is followed for the non-deuterated counterpart of the compound of Formula I and the positive control, 7-ethoxycoumarin (1 μM). Testing is done in triplicate.
Data analysis: The in vitro half-lives (t1/2s) for test compounds are calculated from the slopes of the linear regression of % parent remaining (In) vs incubation time relationship using the following formula:
in vitro t1/2=0.693/k, where k=-[slope of linear regression of % parent remaining(1n) vs incubation time]
Data analysis is performed using Microsoft Excel Software.
Four separate metabolic stability runs were performed in Human Liver Microsomes (HLM) for clemizole and for test compounds of the invention. […] The values in parenthesis in columns A through D and in the “Average” column indicate the percentage increase in half-life in going from clemizole to the test compound.

[1] = pH 7.4, HLM 0.5 mg/mL, 2 mM NADPH, 37° C., run A, read-out: t½ (min) A
[2] = pH 7.4, HLM 0.5 mg/mL, 2 mM NADPH, 37° C., run B, read-out: t½ (min) B
[3] = pH 7.4, HLM 0.5 mg/mL, 2 mM NADPH, 37° C., run C, read-out: t½ (min) C
[4] = pH 7.4, HLM 0.5 mg/mL, 2 mM NADPH, 37° C., run D, read-out: t½ (min) D
[5] = pH 7.4, HLM, average of runs A-D, read-out: Ave t½

[2H]C([2H])(c1nc2ccccc2n1Cc1ccc(Cl)cc1)N1CCCC1 [Compound 101, 1-(4-Chlorobenzyl)-2-(d2-(pyrrolidin-1-yl)methyl)-1H-benzo[d]imidazole]
percentage increase in half-life in going from clemizole to the test compound, run A (run A): (+18%) | percentage increase in half-life in going from clemizole to the test compound, run B (run B): (+8%) | percentage increase in half-life in going from clemizole to the test compound, run C (run C): (+9%) | percentage increase in half-life in going from clemizole to the test compound, run D (run D): (+14%) | half-life [1]: 15.9 min | half-life [2]: 15.2 min | half-life [3]: 14.4 min | half-life [4]: 14 min | half-life [5]: 14.9 min

[2H]C([2H])(c1ccc(Cl)cc1)n1c(CN2CCCC2)nc2ccccc21 [Compound 100, 1-(4-Chlorophenyl-d2-methyl)-2-(pyrrolidin-1-ylmethyl)-1H-benzo[d]imid-azole]
percentage increase in half-life in going from clemizole to the test compound, Average (average of runs A-D): (+4%) | percentage increase in half-life in going from clemizole to the test compound, run A (run A): (+2%) | percentage increase in half-life in going from clemizole to the test compound, run B (run B): (+0.3%) | percentage increase in half-life in going from clemizole to the test compound, run C (run C): (+4%) | percentage increase in half-life in going from clemizole to the test compound, run D (run D): (+13%) | half-life [1]: 13.7 min | half-life [2]: 14.1 min | half-life [3]: 13.8 min | half-life [4]: 13.8 min | half-life [5]: 13.9 min

[2H]C1([2H])N(Cc2nc3ccccc3n2Cc2ccc(Cl)cc2)C([2H])([2H])C([2H])([2H])C1([2H])[2H] [Compound 102, 1-(4-Chlorobenzyl)-2-((2,2,3,3,4,4,5,5-d8-pyrrolidin-1-yl)methyl)-1H-benzo[d]imidazole]
percentage increase in half-life in going from clemizole to the test compound, run A (run A): (+41%) | percentage increase in half-life in going from clemizole to the test compound, run B (run B): (+38%) | percentage increase in half-life in going from clemizole to the test compound, run C (run C): (+32%) | percentage increase in half-life in going from clemizole to the test compound, run D (run D): (+36%) | half-life [1]: 18.9 min | half-life [2]: 19.4 min | half-life [3]: 17.6 min | half-life [4]: 16.7 min | half-life [5]: 18.2 min

[2H]C1([2H])CCC([2H])([2H])N1Cc1nc2ccccc2n1Cc1ccc(Cl)cc1 [Compound 104]
percentage increase in half-life in going from clemizole to the test compound, run A (run A): (+15%) | percentage increase in half-life in going from clemizole to the test compound, run B (run B): (+16%) | percentage increase in half-life in going from clemizole to the test compound, run C (run C): (+17%) | percentage increase in half-life in going from clemizole to the test compound, run D (run D): (+27%) | half-life [1]: 15.5 min | half-life [2]: 16.3 min | half-life [3]: 15.5 min | half-life [4]: 15.6 min | half-life [5]: 15.7 min

[2H]C([2H])(c1nc2ccccc2n1C([2H])([2H])c1ccc(Cl)cc1)N1C([2H])([2H])C([2H])([2H])C([2H])([2H])C1([2H])[2H] [Compound 110, 1-(4-Chlorophenyl-d2-methyl)-2-(d2-(2,2,3,3,4,4,5,5-d8-pyrrolidin-1-yl)methyl)-1H-benzo[d]imidazole]
percentage increase in half-life in going from clemizole to the test compound, run A (run A): (+18%) | percentage increase in half-life in going from clemizole to the test compound, run B (run B): (+30%) | percentage increase in half-life in going from clemizole to the test compound, run C (run C): (+34%) | percentage increase in half-life in going from clemizole to the test compound, run D (run D): (+38%) | half-life [1]: 15.8 min | half-life [2]: 18.2 min | half-life [3]: 17.8 min | half-life [4]: 17 min | half-life [5]: 17.2 min

[2H]C([2H])(c1ccc(Cl)cc1)n1c(CN2C([2H])([2H])C([2H])([2H])C([2H])([2H])C2([2H])[2H])nc2ccccc21 [Compound 106]
percentage increase in half-life in going from clemizole to the test compound, run A (run A): (+21%) | percentage increase in half-life in going from clemizole to the test compound, run B (run B): (+22%) | percentage increase in half-life in going from clemizole to the test compound, run C (run C): (+22%) | percentage increase in half-life in going from clemizole to the test compound, run D (run D): (+36%) | half-life [1]: 16.2 min | half-life [2]: 17.2 min | half-life [3]: 16.2 min | half-life [4]: 16.7 min | half-life [5]: 16.6 min

Clc1ccc(Cn2c(CN3CCCC3)nc3ccccc32)cc1 [clemizole, 1-(p-chlorobenzyl)-2-(1-pyrrolidinylmethyl) benzimidazole, reference compound]
half-life [1]: 13.5 min | half-life [2]: 14 min | half-life [3]: 13.3 min | half-life [4]: 12.3 min | half-life [5]: 13.3 min

[2H]C([2H])(c1nc2ccccc2n1C([2H])([2H])c1ccc(Cl)cc1)N1CCCC1 [Compound 105, 1-(4-Chlorophenyl-d2-methyl)-2-(d2-(pyrrolidin-1-yl)methyl)-1H-benzo[d]imidazole]
percentage increase in half-life in going from clemizole to the test compound, Average (average of runs A-D): (+6%) | percentage increase in half-life in going from clemizole to the test compound, run A (run A): (+0.9%) | percentage increase in half-life in going from clemizole to the test compound, run B (run B): (+6%) | percentage increase in half-life in going from clemizole to the test compound, run C (run C): (+6%) | percentage increase in half-life in going from clemizole to the test compound, run D (run D): (+13%) | half-life [1]: 13.6 min | half-life [2]: 14.9 min | half-life [3]: 14 min | half-life [4]: 13.9 min | half-life [5]: 14 min
